The values below come from PMC4460250, “Systems Pharmacology Dissecting Holistic Medicine for Treatment of Complex Diseases: An Example Using Cardiocerebrovascular Diseases Treated by TCM” (Evidence-based Complementary and Alternative Medicine : eCAM, 2015).

The conditions of series [1]: in vivo.
The conditions of series [2]: in vivo; cited from earlier work.

As to `CCC[C@H](C)C1(CC)C(=O)NC(=O)NC1=O` [Pentobarbital(S)], in series [1], the “Class(High: HIA value ≥0.7; Low: HIA value < 0.7)” value is recorded as “High (key: High: HIA value ≥0.7; Low: HIA value < 0.7)”. For the same molecule, the “HIA(Human Intestinal Absorption)” value in series [2] was 1.
Take `CCN(CC)CC[C@@]1(c2ccccc2)CCC(=O)NC1=O` [Phenglutarimide(R)]: in series [1], the “Class(High: HIA value ≥0.7; Low: HIA value < 0.7)” value was “High (key: High: HIA value ≥0.7; Low: HIA value < 0.7)”. For the same molecule, the “HIA(Human Intestinal Absorption)” value in series [2] is on record as 1.
In the case of `CCN(CC)CC[C@]1(c2ccccc2)CCC(=O)NC1=O` [Phenglutarimide(S)], the “Class(High: HIA value ≥0.7; Low: HIA value < 0.7)” value in series [1] was “High (key: High: HIA value ≥0.7; Low: HIA value < 0.7)”. For the same molecule, the “HIA(Human Intestinal Absorption)” value in series [2] is 1.
On to `CN(C)CC[C@H](c1ccccc1)c1ccccn1` [Pheniramine(R)], for which the “Class(High: HIA value ≥0.7; Low: HIA value < 0.7)” value in series [1] is reported as “High (key: High: HIA value ≥0.7; Low: HIA value < 0.7)”. The “HIA(Human Intestinal Absorption)” value in series [2] is on record as 0.99.
`CC1(C)S[C@@H]2[C@H](NC(=O)COc3ccccc3)C(=O)N2[C@H]1C(=O)O` [Phenoxymethyl penicillinic acid]: the “Class(High: HIA value ≥0.7; Low: HIA value < 0.7)” value in series [1] was “Low (key: High: HIA value ≥0.7; Low: HIA value < 0.7)”. The “HIA(Human Intestinal Absorption)” value in series [2] is on record as 0.45.
Turning to `CC[C@H](c1ccccc1)c1c(O)c2ccccc2oc1=O` [Phenprocoumon(R)], the “Class(High: HIA value ≥0.7; Low: HIA value < 0.7)” value in series [1] is “High (key: High: HIA value ≥0.7; Low: HIA value < 0.7)”. In series [2], the “HIA(Human Intestinal Absorption)” value is reported as 0.95.
Turning to `CC[C@@H](c1ccccc1)c1c(O)c2ccccc2oc1=O` [Phenprocoumon(S)], in series [1], the “Class(High: HIA value ≥0.7; Low: HIA value < 0.7)” value is reported as “High (key: High: HIA value ≥0.7; Low: HIA value < 0.7)”. Also, the “HIA(Human Intestinal Absorption)” value in series [2] was 0.95.
With `CCCCC1C(=O)N(c2ccccc2)N(c2ccccc2)C1=O` [Phenylbutazone], in series [1], the “Class(High: HIA value ≥0.7; Low: HIA value < 0.7)” value is listed as “High (key: High: HIA value ≥0.7; Low: HIA value < 0.7)”. Besides, the “HIA(Human Intestinal Absorption)” value in series [2] is on record as 0.98.
Take `CC(N)C(O)c1ccccc1` (centres unmarked) [Phenylpropanolamine]: the “Class(High: HIA value ≥0.7; Low: HIA value < 0.7)” value in series [1] is listed as “High (key: High: HIA value ≥0.7; Low: HIA value < 0.7)”. Besides, in series [2], the “HIA(Human Intestinal Absorption)” value is reported as 0.95.
Take `CC(C)NC[C@@H](O)COc1cccc2[nH]ccc12` [Pindolol(R)]: in series [1], the “Class(High: HIA value ≥0.7; Low: HIA value < 0.7)” value is on record as “High (key: High: HIA value ≥0.7; Low: HIA value < 0.7)”. Besides, the “HIA(Human Intestinal Absorption)” value in series [2] is reported as 0.9.
Turning to `CC(C)NC[C@H](O)COc1cccc2[nH]ccc12` [Pindolol(S)], in series [1], the “Class(High: HIA value ≥0.7; Low: HIA value < 0.7)” value is “High (key: High: HIA value ≥0.7; Low: HIA value < 0.7)”. Further, the “HIA(Human Intestinal Absorption)” value in series [2] was 0.9.
For `CC(C)(C)NC[C@@H](O)c1ccc(O)c(CO)n1` [Pirbuterol(R)], in series [1], the “Class(High: HIA value ≥0.7; Low: HIA value < 0.7)” value was “Low (key: High: HIA value ≥0.7; Low: HIA value < 0.7)”. The “HIA(Human Intestinal Absorption)” value in series [2] is on record as 0.6.
Regarding `CC(C)(C)NC[C@H](O)c1ccc(O)c(CO)n1` [Pirbuterol(S)], the “Class(High: HIA value ≥0.7; Low: HIA value < 0.7)” value in series [1] is recorded as “Low (key: High: HIA value ≥0.7; Low: HIA value < 0.7)”. Also, the “HIA(Human Intestinal Absorption)” value in series [2] is 0.6.
`C[N+]1(C)CCCC1COC(=O)C(O)(c1ccccc1)c1ccccc1` (centres unmarked) [Poldine]: the “Class(High: HIA value ≥0.7; Low: HIA value < 0.7)” value in series [1] is reported as “Low (key: High: HIA value ≥0.7; Low: HIA value < 0.7)”. Besides, in series [2], the “HIA(Human Intestinal Absorption)” value is recorded as 0.05.
Regarding `CN1[C@H](CSCC(F)(F)F)Nc2cc(Cl)c(S(N)(=O)=O)cc2S1(=O)=O` [Polythiazide(R)], in series [1], the “Class(High: HIA value ≥0.7; Low: HIA value < 0.7)” value was “High (key: High: HIA value ≥0.7; Low: HIA value < 0.7)”. Besides, in series [2], the “HIA(Human Intestinal Absorption)” value was 1.
As for `CN1[C@@H](CSCC(F)(F)F)Nc2cc(Cl)c(S(N)(=O)=O)cc2S1(=O)=O` [Polythiazide(S)], the “Class(High: HIA value ≥0.7; Low: HIA value < 0.7)” value in series [1] is recorded as “High (key: High: HIA value ≥0.7; Low: HIA value < 0.7)”. Further, the “HIA(Human Intestinal Absorption)” value in series [2] is reported as 1.
Turning to `CC(=O)Nc1ccc(OC[C@H](O)CNC(C)C)cc1` [Practolol(R)], the “Class(High: HIA value ≥0.7; Low: HIA value < 0.7)” value in series [1] was “High (key: High: HIA value ≥0.7; Low: HIA value < 0.7)”. Further, in series [2], the “HIA(Human Intestinal Absorption)” value was 0.95.
`CC(=O)Nc1ccc(OC[C@@H](O)CNC(C)C)cc1` [Practolol(S)]: the “Class(High: HIA value ≥0.7; Low: HIA value < 0.7)” value in series [1] is “High (key: High: HIA value ≥0.7; Low: HIA value < 0.7)”. Further, in series [2], the “HIA(Human Intestinal Absorption)” value is on record as 0.95.
For the molecule `CCCN[C@H]1CCc2nc(N)sc2C1` [Pramipexole(S)], the “Class(High: HIA value ≥0.7; Low: HIA value < 0.7)” value in series [1] is recorded as “High (key: High: HIA value ≥0.7; Low: HIA value < 0.7)”. For the same molecule, the “HIA(Human Intestinal Absorption)” value in series [2] is reported as 0.8.
On to `O[C@@](CCN1CCCC1)(c1ccccc1)C1CCCCC1` [Procyclidine(R)], for which the “Class(High: HIA value ≥0.7; Low: HIA value < 0.7)” value in series [1] is listed as “High (key: High: HIA value ≥0.7; Low: HIA value < 0.7)”. In addition, the “HIA(Human Intestinal Absorption)” value in series [2] is 1.
As for `C[C@H](CN1c2ccccc2Sc2ccccc21)N(C)C` [Promethazine(R)], the “Class(High: HIA value ≥0.7; Low: HIA value < 0.7)” value in series [1] was “High (key: High: HIA value ≥0.7; Low: HIA value < 0.7)”. In addition, the “HIA(Human Intestinal Absorption)” value in series [2] was 0.95.
`C[C@@H](CN1c2ccccc2Sc2ccccc21)N(C)C` [Promethazine(S)]: the “Class(High: HIA value ≥0.7; Low: HIA value < 0.7)” value in series [1] was “High (key: High: HIA value ≥0.7; Low: HIA value < 0.7)”. In addition, the “HIA(Human Intestinal Absorption)” value in series [2] was 0.95.
For `CC(C)c1cccc(C(C)C)c1O` [Propofol], the “Class(High: HIA value ≥0.7; Low: HIA value < 0.7)” value in series [1] was “High (key: High: HIA value ≥0.7; Low: HIA value < 0.7)”. In addition, the “HIA(Human Intestinal Absorption)” value in series [2] was 1.
Take `C[C@@H](O)Cn1cnc2c1c(=O)n(C)c(=O)n2C` [Proxyphylline(R)]: the “Class(High: HIA value ≥0.7; Low: HIA value < 0.7)” value in series [1] is given as “High (key: High: HIA value ≥0.7; Low: HIA value < 0.7)”. For the same molecule, the “HIA(Human Intestinal Absorption)” value in series [2] is reported as 1.
As to `C[C@H](O)Cn1cnc2c1c(=O)n(C)c(=O)n2C` [Proxyphylline(S)], in series [1], the “Class(High: HIA value ≥0.7; Low: HIA value < 0.7)” value was “High (key: High: HIA value ≥0.7; Low: HIA value < 0.7)”. In addition, the “HIA(Human Intestinal Absorption)” value in series [2] is reported as 1.
For the molecule `C=CCC1(C(C)CCC)C(=O)NC(=O)NC1=O` (centres unmarked) [Quinalbarbitone], the “Class(High: HIA value ≥0.7; Low: HIA value < 0.7)” value in series [1] was “High (key: High: HIA value ≥0.7; Low: HIA value < 0.7)”. In addition, the “HIA(Human Intestinal Absorption)” value in series [2] is 0.9.
Turning to `CCOC(=O)[C@H](CCc1ccccc1)N[C@@H](C)C(=O)N1[C@H](C(=O)O)C[C@@H]2CCC[C@@H]21` [Ramipril], in series [1], the “Class(High: HIA value ≥0.7; Low: HIA value < 0.7)” value is “Low (key: High: HIA value ≥0.7; Low: HIA value < 0.7)”. In addition, in series [2], the “HIA(Human Intestinal Absorption)” value is reported as 0.6.
In the case of `CCN1CCC[C@H]1CNC(=O)c1c(OC)ccc(Br)c1OC` [Remoxipride(S)], in series [1], the “Class(High: HIA value ≥0.7; Low: HIA value < 0.7)” value is given as “High (key: High: HIA value ≥0.7; Low: HIA value < 0.7)”. Moreover, the “HIA(Human Intestinal Absorption)” value in series [2] is on record as 1.
As for `CCOc1cc(CC(=O)N[C@@H](CC(C)C)c2ccccc2N2CCCCC2)ccc1C(=O)O` [Repaglinide(S)], the “Class(High: HIA value ≥0.7; Low: HIA value < 0.7)” value in series [1] is “High (key: High: HIA value ≥0.7; Low: HIA value < 0.7)”. The “HIA(Human Intestinal Absorption)” value in series [2] is listed as 1.
In the case of `Cn1c(=O)c2c(ncn2CCCNC[C@H](O)c2cc(O)cc(O)c2)n(C)c1=O` [Reproterol(R)], in series [1], the “Class(High: HIA value ≥0.7; Low: HIA value < 0.7)” value was “Low (key: High: HIA value ≥0.7; Low: HIA value < 0.7)”. Besides, the “HIA(Human Intestinal Absorption)” value in series [2] is listed as 0.6.
In the case of `Cn1c(=O)c2c(ncn2CCCNC[C@@H](O)c2cc(O)cc(O)c2)n(C)c1=O` [Reproterol(S)], the “Class(High: HIA value ≥0.7; Low: HIA value < 0.7)” value in series [1] is “Low (key: High: HIA value ≥0.7; Low: HIA value < 0.7)”. The “HIA(Human Intestinal Absorption)” value in series [2] is on record as 0.6.
